Values quoted from earlier work in US20220177978A1, “METHODS OF PREDICTING AND PREVENTING CANCER IN PATIENTS HAVING PREMALIGNANT LESIONS” (INSERM (Institut National de la Santé et de la Recherche …, priority 2019, published 2022).

What was measured:
JAK2 = JAK2 (Homo sapiens, UniProt O60674)
JAK2, sequence (O60674 whole entry, species assumed): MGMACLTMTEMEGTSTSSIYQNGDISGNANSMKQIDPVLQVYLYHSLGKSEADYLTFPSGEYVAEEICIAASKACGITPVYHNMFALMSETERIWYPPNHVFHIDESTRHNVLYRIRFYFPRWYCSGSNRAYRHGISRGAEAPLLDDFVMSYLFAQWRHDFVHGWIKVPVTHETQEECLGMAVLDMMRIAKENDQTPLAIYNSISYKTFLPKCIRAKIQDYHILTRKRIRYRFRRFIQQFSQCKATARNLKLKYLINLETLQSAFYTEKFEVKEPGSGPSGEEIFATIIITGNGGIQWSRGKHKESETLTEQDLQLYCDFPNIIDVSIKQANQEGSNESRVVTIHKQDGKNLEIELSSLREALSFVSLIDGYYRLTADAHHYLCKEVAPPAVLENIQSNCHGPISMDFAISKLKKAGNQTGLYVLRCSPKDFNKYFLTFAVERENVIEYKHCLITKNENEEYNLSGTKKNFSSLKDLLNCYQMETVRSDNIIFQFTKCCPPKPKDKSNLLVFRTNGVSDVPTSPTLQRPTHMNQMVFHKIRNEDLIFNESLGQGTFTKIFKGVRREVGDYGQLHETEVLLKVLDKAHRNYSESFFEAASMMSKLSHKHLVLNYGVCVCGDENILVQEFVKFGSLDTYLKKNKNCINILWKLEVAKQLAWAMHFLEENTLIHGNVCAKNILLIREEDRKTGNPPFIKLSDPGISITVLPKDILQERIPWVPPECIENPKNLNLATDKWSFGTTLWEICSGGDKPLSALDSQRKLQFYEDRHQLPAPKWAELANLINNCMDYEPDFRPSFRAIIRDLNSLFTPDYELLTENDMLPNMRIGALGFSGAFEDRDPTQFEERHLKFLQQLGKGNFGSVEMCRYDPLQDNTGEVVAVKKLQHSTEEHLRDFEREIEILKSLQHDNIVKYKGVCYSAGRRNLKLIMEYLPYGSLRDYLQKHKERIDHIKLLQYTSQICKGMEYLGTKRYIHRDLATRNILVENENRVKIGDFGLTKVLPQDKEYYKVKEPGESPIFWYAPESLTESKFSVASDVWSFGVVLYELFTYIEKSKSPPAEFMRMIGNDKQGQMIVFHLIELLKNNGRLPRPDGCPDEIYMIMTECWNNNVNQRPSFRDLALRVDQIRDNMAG

IC50 (JAK2): < 1 nM
Compound: C[C@H](Nc1cc(-c2cnn(C)c2)cc(Nc2cnccn2)n1)c1ccc(F)cc1 [NS018]
selectivity for JAK2 over other JAK-family kinases (other JAK-family kinases): 30-50 fold
